Experimental data reported in ChEMBL document CHEMBL1141995, “N-i-Propoxy-N-biphenylsulfonylaminobutylhydroxamic acids as potent and selective inhibitors of MMP-2 and MT1-MMP” (Bioorg Med Chem Lett, 2005).

Legend:
[1] = biological target: Matrix metalloproteinase-14 (Homo sapiens, UniProt P50281); experiment: Inhibition of human matrix metalloprotease-14
[2] = biological target: 72 kDa type IV collagenase (Homo sapiens, UniProt P08253); experiment: Inhibition of human matrix metalloprotease-2
[3] = biological target: Matrix metalloproteinase-9 (Homo sapiens, UniProt P14780); experiment: Inhibition of human matrix metalloprotease-9
Matrix metalloproteinase-9, sequence (P14780 whole entry): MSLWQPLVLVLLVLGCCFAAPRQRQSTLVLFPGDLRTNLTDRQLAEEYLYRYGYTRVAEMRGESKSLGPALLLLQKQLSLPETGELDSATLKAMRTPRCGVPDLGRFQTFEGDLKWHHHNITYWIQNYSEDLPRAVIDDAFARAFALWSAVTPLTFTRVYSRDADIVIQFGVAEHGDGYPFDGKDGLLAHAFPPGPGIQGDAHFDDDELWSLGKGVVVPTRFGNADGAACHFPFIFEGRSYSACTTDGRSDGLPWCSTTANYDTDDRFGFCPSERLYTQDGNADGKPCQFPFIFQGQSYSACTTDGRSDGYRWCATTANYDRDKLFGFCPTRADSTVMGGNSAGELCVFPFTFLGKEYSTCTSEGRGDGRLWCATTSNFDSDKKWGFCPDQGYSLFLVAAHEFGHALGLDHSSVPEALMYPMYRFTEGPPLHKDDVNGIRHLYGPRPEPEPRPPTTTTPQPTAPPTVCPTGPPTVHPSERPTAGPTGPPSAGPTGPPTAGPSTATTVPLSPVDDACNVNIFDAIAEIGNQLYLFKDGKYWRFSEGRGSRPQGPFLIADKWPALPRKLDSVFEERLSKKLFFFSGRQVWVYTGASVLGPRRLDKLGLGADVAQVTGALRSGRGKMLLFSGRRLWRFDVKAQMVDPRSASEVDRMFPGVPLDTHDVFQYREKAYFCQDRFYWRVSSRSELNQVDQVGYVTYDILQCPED

Matrilysin = biological target: T1, Matrilysin (Homo sapiens, UniProt P09237); experiment: Inhibition of human matrix metalloprotease-7
T1 sequence (P09237 whole entry): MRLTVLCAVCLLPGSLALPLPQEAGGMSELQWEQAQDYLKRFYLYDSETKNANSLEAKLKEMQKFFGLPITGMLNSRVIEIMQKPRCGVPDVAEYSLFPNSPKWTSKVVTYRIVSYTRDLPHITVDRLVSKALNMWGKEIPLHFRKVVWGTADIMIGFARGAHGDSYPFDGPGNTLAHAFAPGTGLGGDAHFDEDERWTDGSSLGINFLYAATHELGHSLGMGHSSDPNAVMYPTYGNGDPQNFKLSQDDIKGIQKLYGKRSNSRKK

Stromelysin-1 = Stromelysin-1 (Homo sapiens, UniProt P08254); experiment: Inhibition of human matrix metalloprotease-3
Stromelysin-1, sequence (P08254 whole entry): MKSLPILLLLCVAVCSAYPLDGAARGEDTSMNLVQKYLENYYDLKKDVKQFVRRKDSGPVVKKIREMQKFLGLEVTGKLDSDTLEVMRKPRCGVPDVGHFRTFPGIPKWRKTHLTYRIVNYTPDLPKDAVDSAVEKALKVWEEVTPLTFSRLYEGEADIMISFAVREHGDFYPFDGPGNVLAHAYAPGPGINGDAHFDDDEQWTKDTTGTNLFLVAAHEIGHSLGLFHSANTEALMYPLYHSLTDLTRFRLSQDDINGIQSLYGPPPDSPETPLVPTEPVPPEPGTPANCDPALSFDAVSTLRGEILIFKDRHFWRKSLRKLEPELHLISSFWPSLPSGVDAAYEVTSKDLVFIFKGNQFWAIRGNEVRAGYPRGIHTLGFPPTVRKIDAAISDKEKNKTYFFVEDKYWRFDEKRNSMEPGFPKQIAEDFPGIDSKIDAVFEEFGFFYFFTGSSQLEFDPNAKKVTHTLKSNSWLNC

Interstitial collagenase = biological target: T2, Interstitial collagenase (Homo sapiens, UniProt P03956); experiment: Inhibition of human matrix metalloprotease-1
T2 sequence (P03956 whole entry): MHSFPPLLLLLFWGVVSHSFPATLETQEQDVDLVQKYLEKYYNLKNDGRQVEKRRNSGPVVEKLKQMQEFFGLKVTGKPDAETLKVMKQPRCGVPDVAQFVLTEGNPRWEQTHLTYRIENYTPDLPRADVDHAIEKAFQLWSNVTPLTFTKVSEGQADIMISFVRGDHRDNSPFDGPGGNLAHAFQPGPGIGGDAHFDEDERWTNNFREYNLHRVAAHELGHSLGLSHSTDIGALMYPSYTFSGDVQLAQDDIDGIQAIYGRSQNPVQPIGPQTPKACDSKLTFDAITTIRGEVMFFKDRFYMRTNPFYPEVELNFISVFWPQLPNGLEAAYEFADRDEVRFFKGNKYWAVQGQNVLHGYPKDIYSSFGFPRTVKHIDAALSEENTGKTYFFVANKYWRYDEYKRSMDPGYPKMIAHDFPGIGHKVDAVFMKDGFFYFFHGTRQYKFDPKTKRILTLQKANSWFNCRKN

Neutrophil collagenase = Neutrophil collagenase (Homo sapiens, UniProt P22894); experiment: Inhibition of human matrix metalloprotease-8
Neutrophil collagenase, sequence (P22894 whole entry): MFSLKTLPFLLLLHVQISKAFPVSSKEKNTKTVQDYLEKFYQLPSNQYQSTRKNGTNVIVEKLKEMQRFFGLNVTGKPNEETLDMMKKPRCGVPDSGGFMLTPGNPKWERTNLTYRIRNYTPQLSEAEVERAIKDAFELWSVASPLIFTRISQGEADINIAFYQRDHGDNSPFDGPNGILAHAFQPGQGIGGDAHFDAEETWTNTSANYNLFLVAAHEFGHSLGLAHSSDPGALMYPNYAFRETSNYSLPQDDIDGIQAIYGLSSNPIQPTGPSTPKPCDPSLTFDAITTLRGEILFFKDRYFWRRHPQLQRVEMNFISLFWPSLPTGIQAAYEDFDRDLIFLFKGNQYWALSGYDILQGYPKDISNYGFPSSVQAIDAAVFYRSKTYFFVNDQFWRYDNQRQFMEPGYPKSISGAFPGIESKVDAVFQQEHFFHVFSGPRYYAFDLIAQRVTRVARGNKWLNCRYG

72 kDa type IV collagenase, sequence (P08253 whole entry): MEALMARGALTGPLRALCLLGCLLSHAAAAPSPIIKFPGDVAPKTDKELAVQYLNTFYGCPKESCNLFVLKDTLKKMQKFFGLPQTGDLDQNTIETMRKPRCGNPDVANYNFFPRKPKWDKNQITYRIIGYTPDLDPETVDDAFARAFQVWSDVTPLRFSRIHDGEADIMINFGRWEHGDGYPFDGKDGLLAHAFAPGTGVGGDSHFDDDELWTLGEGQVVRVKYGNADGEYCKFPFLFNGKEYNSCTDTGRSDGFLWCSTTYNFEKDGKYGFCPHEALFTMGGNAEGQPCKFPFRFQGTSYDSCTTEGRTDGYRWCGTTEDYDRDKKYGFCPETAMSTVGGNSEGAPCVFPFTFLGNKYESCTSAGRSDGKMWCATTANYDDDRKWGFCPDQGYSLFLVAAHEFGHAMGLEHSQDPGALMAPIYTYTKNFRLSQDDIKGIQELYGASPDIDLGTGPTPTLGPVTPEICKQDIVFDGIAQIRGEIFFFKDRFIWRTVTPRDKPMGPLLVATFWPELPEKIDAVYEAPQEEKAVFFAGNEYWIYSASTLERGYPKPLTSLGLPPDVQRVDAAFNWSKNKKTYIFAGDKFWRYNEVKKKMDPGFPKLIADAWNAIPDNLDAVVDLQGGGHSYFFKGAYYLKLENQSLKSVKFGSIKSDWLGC

Structure (SMILES)	IC50 [1]	IC50 [2]	IC50 [3]	IC50 (Matrilysin)	IC50 (Stromelysin-1)	IC50 (Interstitial collagenase)	IC50 (Neutrophil collagenase)
CC(C)ON([C@H](CCN)C(=O)NO)S(=O)(=O)c1ccc(-c2ccccc2)cc1	> 300 nM	935 nM	4520 nM	–	–	–	–
CC(C)ON(CC(=O)NO)S(=O)(=O)c1ccc(-c2ccccc2)cc1	> 10000 nM	12 nM	200 nM	> 50000 nM	4500 nM	> 50000 nM	–
CC(C)ON([C@@H](C(=O)NO)C(C)C)S(=O)(=O)c1ccc(-c2ccccc2)cc1	9.8 nM	0.09 nM	6.7 nM	> 11100 nM	50 nM	–	1.6 nM
CC(C)ON([C@H](C(=O)NO)C(C)C)S(=O)(=O)c1ccc(-c2ccccc2)cc1	–	10.3 nM	13 nM	–	–	–	–
CC(C)ON(C(C(=O)NO)C(C)C)S(=O)(=O)c1ccc(-c2ccccc2)cc1 (racemic)	–	1.8 nM	19.6 nM	–	–	–	–
COc1ccc(S(=O)(=O)N(Cc2cccnc2)[C@@H](C(=O)NO)C(C)C)cc1 [CGS-27023A]	8.9 nM	–	–	100 nM	–	–	–
CC(C)ON([C@H](CCNC(=O)OCc1ccccc1)C(=O)NO)S(=O)(=O)c1ccc(-c2ccccc2)cc1	7.7 nM	0.41 nM	16 nM	> 24400 nM	130 nM	> 3000 nM	–
CC1(C)SCCN(S(=O)(=O)c2ccc(Oc3ccncc3)cc2)[C@H]1C(=O)NO [PRINOMASTAT]	0.3 nM	–	–	54 nM	–	–	–
